Target: Human cGAS amino acids 155-522 (Homo sapiens (Human), UniProt Q8N884)
Experiment: cGAS biochemical activity assay (ATP remaining, Kinase-Glo Max luminescence)
Conditions: human cGAS 155-522, ATP remaining (Kinase-Glo Max); read-out: cGAS IC50

Chain of Human cGAS amino acids 155-522 (Q8N884 157-522): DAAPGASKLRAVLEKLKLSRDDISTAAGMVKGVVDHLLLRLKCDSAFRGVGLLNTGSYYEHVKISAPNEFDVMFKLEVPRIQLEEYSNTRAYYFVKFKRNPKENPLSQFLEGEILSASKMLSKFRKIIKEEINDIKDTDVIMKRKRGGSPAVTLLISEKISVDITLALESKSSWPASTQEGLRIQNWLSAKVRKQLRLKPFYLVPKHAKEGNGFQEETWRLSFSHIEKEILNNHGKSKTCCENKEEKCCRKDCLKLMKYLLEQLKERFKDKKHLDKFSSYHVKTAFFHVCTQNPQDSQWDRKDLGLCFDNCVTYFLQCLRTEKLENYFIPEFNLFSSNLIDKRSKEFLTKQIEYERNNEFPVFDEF

IC50 [µM] | SMILES
20 to 250 | Cc1[nH]c2c(-c3ccccc3)c(C(F)(F)F)nn2c(=O)c1C(=O)Nc1ccc(Cl)cc1 [Compound A1016, N-(4-chlorophenyl)-5-methyl-7-oxo-3-phenyl-2-(trifluoromethyl)-4,7-dihydropyrazolo[1,5-a]pyrimidine-6-carboxamide]
20 to 250 | CNC(=O)COCc1[nH]c2c(-c3ccccc3)c(C(F)(F)F)nn2c(=O)c1-c1nc2c(OC)cccc2o1 [Compound C1199, 2-((6-(4-methoxybenzo[d]oxazol-2-yl)-7-oxo-3-phenyl-2-(trifluoromethyl)-4,7-dihydropyrazolo[1,5-a]pyrimidin-5-yl)methoxy)-N-methylacetamide]
> 250 | COc1cccc2oc(-c3c(C)[nH]c4c(-c5ccccc5)c(C(=O)O)nn4c3=O)nc12 [Compound C1043, 6-(4-methoxybenzo[d]oxazol-2-yl)-5-methyl-7-oxo-3-phenyl-4,7-dihydropyrazolo[1,5-a]pyrimidine-2-carboxylic acid]
20 to 250 | Cc1[nH]c2c(-c3ccccc3)c(C(F)(F)F)nn2c(=O)c1C(=O)Nc1cccc(OC(F)(F)F)c1 [Compound A1050, 5-methyl-7-oxo-3-phenyl-N-(3-(trifluoromethoxy)phenyl)-2-(trifluoromethyl)-4,7-dihydropyrazolo[1,5-a]pyrimidine-6-carboxamide]
20 to 250 | COc1ccc(NC(=O)Cc2c(C)[nH]c3c(-c4ccccc4)c(C(F)(F)F)nn3c2=O)cc1 [Compound B1006, N-(4-methoxyphenyl)-2-(5-methyl-7-oxo-3-phenyl-2-(trifluoromethyl)-4,7-dihydropyrazolo[1,5-a]pyrimidin-6-yl)acetamide]
20 to 250 | COc1cccc2c1nc(-c1c(C)[nH]c3c(-c4ccccc4)c(C(F)(F)F)nn3c1=O)n2CC1CC1 [Compound C1189, 6-(1-(cyclopropylmethyl)-4-methoxy-1H-benzo[d]imidazol-2-yl)-5-methyl-3-phenyl-2-(trifluoromethyl)pyrazolo[1,5-a]pyrimidin-7(4H)-one]
> 250 | Cc1[nH]c2c(-c3ccccc3)c(C(F)(F)F)nn2c(=O)c1-c1nnc(N(C)C2CCCCC2)o1 [Compound D1043, 6-(5-(cyclohexyl(methyl)amino)-1,3,4-oxadiazol-2-yl)-5-methyl-3-phenyl-2-(trifluoromethyl)pyrazolo[1,5-a]pyrimidin-7(4H)-one]
> 250 | COCCNC(=O)Cc1c(C)[nH]c2c(-c3ccccc3)c(C(F)(F)F)nn2c1=O [Compound B1003, N-(2-methoxyethyl)-2-(5-methyl-7-oxo-3-phenyl-2-(trifluoromethyl)-4,7-dihydropyrazolo[1,5-a]pyrimidin-6-yl)acetamide]
20 to 250 | COc1cccc2oc(-c3c(C)[nH]c4c(-c5ccccc5)c(S(C)(=O)=O)nn4c3=O)nc12 [Compound C1068, 6-(4-methoxybenzo[d]oxazol-2-yl)-5-methyl-2-(methylsulfonyl)-3-phenylpyrazolo[1,5-a]pyrimidin-7(4H)-one]
> 250 | Cc1[nH]c2c(-c3ccccc3)c(C(F)(F)F)nn2c(=O)c1-c1nnc(C2CCCCC2N)o1 (stereo not shown) [Compound D1080, 6-(5-(2-aminocyclohexyl)-1,3,4-oxadiazol-2-yl)-5-methyl-3-phenyl-2-(trifluoromethyl)pyrazolo[1,5-a]pyrimidin-7(4H)-one]
< 20 | COc1cccc2oc(-c3c(COC4CCN(C)C4=O)[nH]c4c(-c5ccccc5)c(C(F)(F)F)nn4c3=O)nc12 (stereo not shown) [Compound C1225, 6-(4-methoxybenzo[d]oxazol-2-yl)-5-(((1-methyl-2-oxopyrrolidin-3-yl)oxy)methyl)-3-phenyl-2-(trifluoromethyl)pyrazolo[1,5-a]pyrimidin-7(4H)-one]
20 to 250 | Cc1[nH]c2c(-c3ccccc3)c(C(F)(F)F)nn2c(=O)c1C(N)=O [Compound A1140, 5-methyl-7-oxo-3-phenyl-2-(trifluoromethyl)-4,7-dihydropyrazolo[1,5-a]pyrimidine-6-carboxamide]
> 250 | Cc1[nH]c2c(-c3ccccc3)c(C(F)(F)F)nn2c(=O)c1-c1ccc2nccn2c1 [Compound C1006, 6-(imidazo[1,2-a]pyridin-6-yl)-5-methyl-3-phenyl-2-(trifluoromethyl)pyrazolo[1,5-a]pyrimidin-7(4H)-one]
20 to 250 | Cc1[nH]c2c(-c3ccccc3)c(C(F)(F)F)nn2c(=O)c1-c1nnc(C2CCN(C(=O)OC(C)(C)C)CC2)o1 [Compound D1044, tert-butyl 4-(5-(5-methyl-7-oxo-3-phenyl-2-(trifluoromethyl)-4,7-dihydropyrazolo[1,5-a]pyrimidin-6-yl)-1,3,4-oxadiazol-2-yl)piperidine-1-carboxylate]
20 to 250 | COc1cncc(NC(=O)c2c(C)[nH]c3c(-c4ccccc4)c(C(F)(F)F)nn3c2=O)n1 [Compound A1098, N-(6-methoxypyrazin-2-yl)-5-methyl-7-oxo-3-phenyl-2-(trifluoromethyl)-4,7-dihydropyrazolo[1,5-a]pyrimidine-6-carboxamide]

Second part, the compound before the results:

SMILES | IC50 [µM]
COc1cccc2oc(-c3c(C)[nH]c4c(-c5ccccc5)c(N)nn4c3=O)nc12 [Compound C1063, 2-amino-6-(4-methoxybenzo[d]oxazol-2-yl)-5-methyl-3-phenylpyrazolo[1,5-a]pyrimidin-7(4H)-one] | > 250
Cc1[nH]c2c(-c3ccccc3)c(C(F)(F)F)nn2c(=O)c1C(=O)Nc1ccc(C#N)cc1 [Compound A1015, N-(4-cyanophenyl)-5-methyl-7-oxo-3-phenyl-2-(trifluoromethyl)-4,7-dihydropyrazolo[1,5-a]pyrimidine-6-carboxamide] | 20 to 250
COC1CCN(c2nnc(-c3c(C)[nH]c4c(-c5ccccc5)c(C(F)(F)F)nn4c3=O)o2)C1 (stereo not shown) [Compound D1037, 6-(5-(3-methoxypyrrolidin-1-yl)-1,3,4-oxadiazol-2-yl)-5-methyl-3-phenyl-2-(trifluoromethyl)pyrazolo[1,5-a]pyrimidin-7(4H)-one] | < 20
Cc1[nH]c2c(-c3ccccc3)c(C(F)(F)F)nn2c(=O)c1CC(=O)N1CCOCC1 [Compound B1002, 5-methyl-6-(2-morpholino-2-oxoethyl)-3-phenyl-2-(trifluoromethyl)pyrazolo[1,5-a]pyrimidin-7(4H)-one] | > 250
COc1cccc2oc(-c3c(C)[nH]c4c(-c5ccccc5C#N)c(C(F)(F)F)nn4c3=O)nc12 [Compound C1148, 2-(6-(4-methoxybenzo[d]oxazol-2-yl)-5-methyl-7-oxo-2-(trifluoromethyl)-4,7-dihydropyrazolo[1,5-a]pyrimidin-3-yl)benzonitrile] | 20 to 250
Cc1[nH]c2c(-c3ccccc3)c(C(F)(F)F)nn2c(=O)c1C(=O)N[C@@H]1CCCC[C@H]1N [Compound A1014, N-((1R,2R)-2-aminocyclohexyl)-5-methyl-7-oxo-3-phenyl-2-(trifluoromethyl)-4,7-dihydropyrazolo[1,5-a]pyrimidine-6-carboxamide] | 20 to 250
COc1ccc(-c2c(C(F)(F)F)nn3c(=O)c(-c4nc5c(OC)cccc5o4)c(C)[nH]c23)cc1 [Compound C1115, 6-(4-methoxybenzo[d]oxazol-2-yl)-3-(4-methoxyphenyl)-5-methyl-2-(trifluoromethyl)pyrazolo[1,5-a]pyrimidin-7(4H)-one] | 20 to 250
Cc1[nH]c2c(-c3ccccc3)c(C(F)(F)F)nn2c(=O)c1C(=O)Nc1ccc(S(C)(=O)=O)cn1 [Compound A1108, 5-methyl-N-(5-(methylsulfonyl)pyridin-2-yl)-7-oxo-3-phenyl-2-(trifluoromethyl)-4,7-dihydropyrazolo[1,5-a]pyrimidine-6-carboxamide] | 20 to 250
Cc1[nH]c2c(-c3ccccc3)c(C(F)(F)F)nn2c(=O)c1-c1nc2ccccc2n1CC1CCCC1 [Compound C1235, 6-(1-(cyclopentylmethyl)-1H-benzo[d]imidazol-2-yl)-5-methyl-3-phenyl-2-(trifluoromethyl)pyrazolo[1,5-a]pyrimidin-7(4H)-one] | 20 to 250
Cc1[nH]c2c(-c3ccccc3)c(C(F)(F)F)nn2c(=O)c1-c1nnc(N2CCCC(O)C2)o1 (stereo not shown) [Compound D1087, 6-(5-(3-hydroxypiperidin-1-yl)-1,3,4-oxadiazol-2-yl)-5-methyl-3-phenyl-2-(trifluoromethyl)pyrazolo[1,5-a]pyrimidin-7(4H)-one] | 20 to 250
COc1cccc2oc(-c3c(C4CCC(C(=O)O)CC4)[nH]c4c(-c5ccccc5)c(C(F)(F)F)nn4c3=O)nc12 (single isomer, unassigned) [Compound C1238, 4-(6-(4-methoxybenzo[d]oxazol-2-yl)-7-oxo-3-phenyl-2-(trifluoromethyl)-4,7-dihydropyrazolo[1,5-a]pyrimidin-5-yl)cyclohexane-1-carboxylic acid] | 20 to 250
Cc1[nH]c2c(-c3ccccc3)c(C(F)(F)F)nn2c(=O)c1C(=O)N[C@H]1CCCC[C@@H]1O [Compound A1091, N-((1S,2S)-2-hydroxycyclohexyl)-5-methyl-7-oxo-3-phenyl-2-(trifluoromethyl)-4,7-dihydropyrazolo[1,5-a]pyrimidine-6-carboxamide] | 20 to 250
Cc1nc(-c2c(C)[nH]c3c(-c4ccccc4)c(C(F)(F)F)nn3c2=O)[nH]c1C [Compound C1021, 6-(4,5-dimethyl-1H-imidazol-2-yl)-5-methyl-3-phenyl-2-(trifluoromethyl)pyrazolo[1,5-a]pyrimidin-7(4H)-one] | 20 to 250
COc1ccccc1NC(=O)c1c[nH]c2c(-c3ccccc3)c(C(F)(F)F)nn2c1=O [Compound A1057, N-(2-methoxyphenyl)-7-oxo-3-phenyl-2-(trifluoromethyl)-4,7-dihydropyrazolo[1,5-a]pyrimidine-6-carboxamide] | 20 to 250
COc1cccc2oc(-c3c(C)[nH]c4c(-c5ccccc5)c(C(C)=O)nn4c3=O)nc12 [Compound C1210, 2-acetyl-6-(4-methoxybenzo[d]oxazol-2-yl)-5-methyl-3-phenylpyrazolo[1,5-a]pyrimidin-7(4H)-one] | < 20
Cc1[nH]c2c(-c3ccccc3)c(C(F)(F)F)nn2c(=O)c1C(=O)Nc1cccc(N(S(C)(=O)=O)S(C)(=O)=O)c1 [Compound A1046, 5-methyl-N-(3-(N-(methylsulfonyl)methylsulfonamido)phenyl)-7-oxo-3-phenyl-2-(trifluoromethyl)-4,7-dihydropyrazolo[1,5-a]pyrimidine-6-carboxamide] | 20 to 250

Source: patent publication US10738056B2 (Aduro BioTech, Inc., priority 2017, dated 2020)
